Data on one compound can be found in patent US20250332183A1, “COMPOSITIONS AND METHODS FOR THE STIMULATION OF INTERMEDIATE MACROPHAGES AND TREATMENTS THEREWITH” (priority 2024, published 2025).

The test system of one experiment is TLR4 pathway. In words: Western blot of TLR4 pathway proteins in hPBMC and CBMCs. It counts as cell-based, human. The note with it: 100 μM, alone and with LPS 50 ng/mL. As to the method:
FIGS. 14A to 14D show Western Blot analysis for quantification of TLR4 pathway proteins and densitometry of (FIGS. 14A-FIG. 14C) using adult hPBMC and (FIG. 14D) CBMCs. After treatment with AVR-48 [100 μM], LPS [50 ng/mL], and in combination indicates AVR-48 activates TLR4 pathway via increasing phospho-MyD88 and phospho-TTRAP, with no activation via TRAM, and inhibiting the phosphorylation of the NF-kB pathway.
CBMCs were treated with either AVR-123 [100 μM], LPS [50 ng/mL] or AVR-123+LPS for 24 h. […] (FIG. 23G) AVR-123 decreases phosphorylated NFkB alone and when combined with LPS in CBMCs via western blot analysis. N=3, One-way ANOVA.
For orientation: A western blot detects proteins with antibodies after separation by electrophoresis.

The test system of experiment [1] is cord blood mononuclear cells (CBMCs). In words: Macrophage lineage in CBMCs. It counts as cell-based, human. The note with it: 100 μM and LPS 50 ng/mL, 72 h (3d), HLA-DRlow/CD163high. From the text: N=3, *P<0.05, Two-way ANOVA was used for statistical analysis.
For experiment [2], the system named is mice. The experiment in a line: AVR-48 pretreatment of mice followed by LPS, immune cell profile. Type of experiment: in vivo, mouse. The note with it: mice pretreated with AVR-48, in the presence of LPS. From the text:
AVR-48 stimulated innate and adaptive immune response via (FIG. 25E) TNF-α increase and (FIG. 25F) CD3+, (FIG. 25G) CD4+, and (FIG. 25H) CD8+ T-cells, a necessary step in adaptive response and immune resolution. *p<0.05, **p<0.01, ***p<0.001; N=4, One-way ANOVA was used for analysis.

For the next experiment, the system named is hPBMCs. The experiment in a line: hPBMCs treated 7 days with AVR-48, LPS, MPLA, Influenza-A peptides, flow cytometry. It counts as cell-based, human. (A flow cytometer gives signals particle by particle.)
In experiment [3] the test system is mice. The experiment in a line: Ovalbumin vaccination mouse model with CFA/IFA. Type of experiment: in vivo. Conditions: AVR-48 along with Ovalbumin±CFA/IFA, day 28. As to the method:
Study Design: N=4/per group (Balbc/6J, 6-7 months old). Group-1: (OVA+CFA) 1st dose; (OVA+IFA) 2nd dose; OVA-3rd dose; Group 2: OVA+CFA+AVR-48 1st dose; OVA+IFA+AVR-48 2nd dose; OVA+AVR-48 3rd dose; and Group 3: OVA+IFA+AVR48 1st dose; OVA+IFA+AVR-48 2nd dose; OVA+AVR-48 3rd dose.
Outcome measures: Immune cell quantification (FACS) in the spleen and IgG in serum (ELISA).
In vivo study: In one study, C57Bl/6J mice (n=4/group) were dosed intramuscularly (IM) with either complete Freund's adjuvant (CFA) or incomplete Freund's adjuvant (IFA) along with AVR-48 for a 28-day study using a prime-boost-boost regimen. In the second study, mice were dosed with MPLA and Flu-peptide using only the priming dose regimen (no booster). Splenic immune cells and plasma immunoglobin concentrations were assessed at day 28.

For `CC(=O)NC1C(Oc2ccc([N+](=O)[O-])cc2)OC(CO)C(O)C1O` (stereo not shown) [AVR-48], in the experiment on TLR4 pathway, the “activation via TRAM” value is listed as “no activation”, the phospho-MyD88 entry is listed as “increasing” and the phospho-TTRAP entry is “increasing”. Further, the macrophage lineage result in experiment [1] is “preference for intermediate macrophage lineage”. In the experiment with mice [2], the “CD3+ T-cells” value is on record as “stimulated”, the “CD4+ T-cells” value is given as “stimulated”, the “CD8+ T-cells” value is “stimulated” and the M1 macrophages result is listed as “increased”. For the same compound, in the experiment with mice [2], the “Mint (intermediate) macrophages” value is “increased” and the TNF-α entry is “increase”. The “TEMRE effector T-cell production” value with hPBMCs (compared to MPLA) is listed as “stimulated more”. In addition, in the experiment with hPBMCs (in the presence of influenza-A peptide), the “CD8+ IFN-g+ T-memory and helper cell recruitment” value is “perturbated”. Also, in the experiment on hPBMCs (vs MPLA), the “CD4+ T-cells production” value is on record as “outperformed MPLA” and the “CD27− T-cells production” value was “outperformed MPLA”. Further, in the experiment with mice [3], the “CD138+/CD38+/CD27+ plasma cells in mouse spleen” value is “Increased” and the IgG in serum result is given as “Increased”.
